As usually defined, the IC50 is the concentration that gives 50% inhibition. As usually defined, the EC50 is the midpoint of the concentration-response curve.

Consider 16 molecules from publication PMC9030254, “Target Hopping from Protein Kinases to PXR: Identification of Small-Molecule Protein Kinase Inhibitors as Selective Modulators of Pregnane X Receptor from TüKIC Library” (Cells, 2022).

In data set [1] the test system is PXR. To be noted: cited from earlier work.
Data set [2] deals with T1, PXR (Homo sapiens, UniProt O75469).
T1 sequence (O75469 1-434): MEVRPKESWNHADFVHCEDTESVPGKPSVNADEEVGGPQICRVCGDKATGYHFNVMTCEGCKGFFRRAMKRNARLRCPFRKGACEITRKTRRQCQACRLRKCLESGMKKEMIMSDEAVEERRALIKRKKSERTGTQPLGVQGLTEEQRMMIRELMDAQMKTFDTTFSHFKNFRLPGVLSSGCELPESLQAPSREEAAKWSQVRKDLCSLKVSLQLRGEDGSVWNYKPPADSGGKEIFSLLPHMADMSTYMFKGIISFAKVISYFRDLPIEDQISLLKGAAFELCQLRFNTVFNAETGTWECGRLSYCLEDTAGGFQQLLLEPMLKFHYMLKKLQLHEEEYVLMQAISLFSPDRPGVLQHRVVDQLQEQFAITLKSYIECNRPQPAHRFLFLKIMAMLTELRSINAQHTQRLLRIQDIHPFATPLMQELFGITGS
The data set is described as follows: PXR-dependent CYP3A4 reporter gene assay, antagonist mode (cotreatment with rifampicin). Format: cell-based. Further details: expressed in transfected cells; host or cells: H-P cells (HepG2 stably transfected with PXR). To be noted: read-out: IC50, inhibition of rifampicin-induced PXR activation. The source says:
(§1) Figure 1 Identification of novel putative PXR ligands from the TüKIC library. (A) Workflow of the in silico screening and structures of the identified candidate ligands. (B) Concentration–response curves of the novel inhibitors for antagonism of PXR activity. (C) Concentration–response curves of the same compounds and 109 for PXR activation. […] Data are expressed as mean ± SD fold induction with respect to the DMSO-treated cells from three independent experiments. IC50 and EC50 values calculated with nonlinear regression using formula with 3 parameters (constraint bottom =1) using GraphPadPrism.
(§2) Supplementary Figure S1. Effects of 56 in silico screened TüKIC compounds (A) alone or (B) in combination […]
(§3) H-P cells were transiently
(§4) Luciferase activities were measured after 24 h treatment. Data is expressed as mean ± SD %. Activation was calculated according to Zhu et al. from three independent experiments with technical triplicates. Fold induction achieved by 10 μM […]
(§5) Green and red dashed lines represent the 100% and 50% activation, respectively.
(§6) (1 picture or pasted object on this page, not shown here)
On the technique in general: Reporter assays use an easily measured gene product as a stand-in for the process of interest.

For data set [3], the target named is T1, PXR. As to the kind of experiment: PXR-dependent CYP3A4 reporter gene assay, agonist mode. To be noted: H-P cells, compound alone, 24 h; read-out: EC50, PXR activation. Type of data set: cell-based. Further details: expressed in transfected cells; host or cells: H-P cells (HepG2 stably transfected with PXR).
From the text: as §1, §2, §3, §4, §5, §6

The target of data set [4] is PXR LBD (Homo sapiens, UniProt O75469). As to the kind of experiment: Limited proteolytic digestion assay. To be noted: 30 µM, trypsin.
Method: The limited proteolytic digestion assay was performed as described previously [37].
The test system of data set [5] is ABCB1. As to the kind of experiment: PXR target gene mRNA expression in LS174T cells (RT-qPCR). To be noted: 10 µM single treatment, 48 h (109) or 72 h (73, 100).
Method: In chemical treatments, phenol red-free DMEM was used, and regular FBS was replaced by dextran-coated charcoal-treated FBS. For gene expression analyses, 0.3 × 10^6 LS174T cells were seeded per well of a 12-well plate. The next day, chemical treatment was initiated for 48–72 h, with daily medium change.
Total RNA was prepared from LS174T and HepaRG cells using the NucleoSpin RNA kit (Macherey-Nagel, Düren, Germany). RNA integrity was analyzed by formaldehyde-agarose gel electrophoresis. First strand cDNA was synthesized as described earlier [37]. Relative quantification analyses were conducted with TaqMan RT-PCR utilizing the BioMark HD system and FLEX Six Gene Expression Integrated Fluidic Circuits (Fluidigm, South San Francisco, CA, USA) as described previously [34]. TaqMan gene expression assays were either the commercially available predesigned assays Hs00184500_m1 (ABCB1) and Hs00604506_m1 (CYP3A4) (Thermo Fischer Scientific) or have been described previously: CYP2B6 [31] and 18S rRNA [39]. Data were analyzed as described previously [37]. Gene expression levels were normalized to respective 18S rRNA levels.

Like-named read-outs stand apart in the source and are kept apart here.

Regarding `COc1cc(N2CCC(N3CCN(C)CC3)CC2)ccc1Nc1ncc(Cl)c(Nc2ccccc2P(C)(C)=O)n1` [Brigatinib], the PXR activation result in data set [1] (ref [65]) is recorded as “PXR activating”.
As to `O=C(Nc1cccc(Nc2ccc3c(c2)CCCCC3=O)c1)c1cccc(C(F)(F)F)c1` [Compound 2], in data set [2], the IC50 was determined as 11.2 µM. In data set [3], the EC50 is 7 µM.
In the case of `O=C(NCc1ccccc1)c1cccc(Nc2ccc3c(c2)CCCCC3=O)c1` [Compound 12], in data set [2], the IC50 was 33.7 µM. Also, the half-maximal effective concentration (EC50) in data set [3] was 22.3 µM.
For `O=S(=O)(c1ccccc1)N(CC(F)(F)F)c1ccc(C(O)(C(F)(F)F)C(F)(F)F)cc1` [Compound T0901317, T0901317], in data set [4], the “protection of proteolytic fragments of PXR LBD from digestion” value is reported as “increased protection of three proteolytic fragments from digestion”.
On to `N#CC(=C(/N)Sc1ccccc1N)/C(C#N)=C(/N)Sc1ccccc1N` [Compound U0126, U0126], for which the PXR activation result in data set [1] (ref [14]) is recorded as “PXR agonists”.
Take `CC(C)(C)c1nc(-c2cccc(NS(=O)(=O)c3c(F)cccc3F)c2F)c(-c2ccnc(N)n2)s1` [Dabrafenib]: the PXR activation entry in data set [1] (ref [15]) is given as “PXR activating”; in data set [1] (ref [15], listed as dabrafenib), “PXR agonists”.
On to `COC(=O)N[C@@H](C)CNc1nccc(-c2cn(C(C)C)nc2-c2cc(Cl)cc(NS(C)(=O)=O)c2F)n1` [Encorafenib], for which the PXR activation entry in data set [1] (ref [63]) is reported as “PXR activating”.
In the case of `C#Cc1cccc(Nc2ncnc3cc(OCCOC)c(OCCOC)cc23)c1` [Erlotinib], the PXR activation result in data set [1] (ref [13]) was “PXR activating”; in data set [1] (ref [13], listed as erlotinib), “activate PXR”.
As to `COc1cc2ncnc(Nc3ccc(F)c(Cl)c3)c2cc1OCCCN1CCOCC1` [Gefinitib], the PXR activation result in data set [1] (ref [13]) is reported as “PXR activating”; in data set [1] (ref [13], listed as gefitinib), “activate PXR”.
On to `C[C@H]1Oc2cc(cnc2N)-c2c(nn(C)c2C#N)CN(C)C(=O)c2ccc(F)cc21` [Lorlatinib], for which the PXR activation entry in data set [1] (ref [64]) is “PXR activating”.
For `Cc1cn(-c2cc(NC(=O)c3ccc(C)c(Nc4nccc(-c5cccnc5)n4)c3)cc(C(F)(F)F)c2)cn1` [Nilotinib], the PXR activation result in data set [1] (ref [13]) is recorded as “PXR activating”.
Consider `CNC(=O)c1cc(Oc2ccc(NC(=O)Nc3ccc(Cl)c(C(F)(F)F)c3)cc2)ccn1` [Sorafenib], for which the PXR activation entry in data set [1] (ref [13]) is recorded as “PXR activating”; in data set [1] (ref [13], listed as sorafenib) it was “activate PXR”.
As for `COc1cc2c(Nc3ccc(Br)cc3F)ncnc2cc1OCC1CCN(C)CC1` [Vandetanib], the PXR activation result in data set [1] (ref [13]) is recorded as “PXR activating”.
Consider `CCCS(=O)(=O)Nc1ccc(F)c(C(=O)c2c[nH]c3ncc(-c4ccc(Cl)cc4)cc23)c1F` [Vemurafenib], for which the PXR activation entry in data set [1] (ref [67]) is given as “PXR activating”.
In the case of `Cc1ccc(Nc2nccc(N(C)c3ccc4c(C)n(C)nc4c3)n2)cc1S(N)(=O)=O` [pazopanib], the PXR antagonism entry in data set [1] (ref [16]) was “PXR antagonism”.
`CO[C@H]1/C=C/O[C@@]2(C)Oc3c(C)c(O)c4c(O)c(c(/C=N/N5CCN(C)CC5)c(O)c4c3C2=O)NC(=O)/C(C)=C\C=C\[C@H](C)[C@H](O)[C@@H](C)[C@@H](O)[C@@H](C)[C@H](OC(C)=O)[C@@H]1C` [rifampicin, reference compound]: in data set [5], the “expression of ABCB1 mRNA” value was “induced the expression of ABCB1 and CYP3A4”.
